Here are results for 1 compound from patent publication US8354398B2, “Substituted isoxazole compounds” (Bristol-Myers Squibb Company, priority 2009, dated 2013).

The target in assay [1] is T1, S1P1 (Homo sapiens, UniProt P21453). Kind of assay: S1P1 Binding Assay (33P-S1P ligand competition, membranes from CHO cells). More on the design: expressed in transfected cells; host or cells: CHO cells. To be noted: membranes of CHO cells expressing human S1P1; 0.03 nM 33P-S1P; 60 min room temperature. The method in brief:
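Membranes from CHO cells expressing human S1P1 (2 μg/well) were incubated with 0.03 nM ^33P-S1P and test compound for 60 min at room temperature. Bound radioactivity was collected on GF/B filters and counted. IC50 is the concentration reducing specific radioligand binding by 50%.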

In assay [2] the target is T1, S1P1. The assay can be described thus: Method A: Receptor [35S] GTPγS Binding Assay, membranes from S1P1/CHO cells. It is filed as biochemical. More on the design: expressed in transfected cells; host or cells: S1P1/CHO cells. In short, it runs like this: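 Membranes ([…]) incubated 45 min at room temperature with 3-fold compound dilutions and 0.2 nM final [35S]GTPγS in HEPES pH 7.5 buffer containing 10 μM GDP, MgCl2, EGTA, DTT, BSA and saponin. Bound label collected by filtration and scintillation counting; EC50 taken at 50% of each compound's Ymax.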
On the technique in general: Binding of GTPγS marks nucleotide exchange on a G protein.

T1 sequence (P21453 whole entry): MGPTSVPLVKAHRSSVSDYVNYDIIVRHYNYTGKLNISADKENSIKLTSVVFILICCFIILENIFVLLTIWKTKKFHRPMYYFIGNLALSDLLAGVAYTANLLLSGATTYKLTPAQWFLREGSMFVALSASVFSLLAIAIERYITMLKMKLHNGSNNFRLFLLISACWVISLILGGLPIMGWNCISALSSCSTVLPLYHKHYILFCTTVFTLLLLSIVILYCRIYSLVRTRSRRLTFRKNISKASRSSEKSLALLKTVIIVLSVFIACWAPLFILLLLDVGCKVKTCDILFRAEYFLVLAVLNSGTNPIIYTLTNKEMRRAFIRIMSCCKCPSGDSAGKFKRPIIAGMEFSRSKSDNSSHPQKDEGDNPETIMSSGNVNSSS

`O=C(O)C1CN(Cc2ccc(-c3noc(-c4onc(-c5ccccc5)c4C(F)(F)F)n3)cc2)C1` [Example 1, 1-(4-(5-(3-Phenyl-4-(trifluoromethyl)isoxazol-5-yl)-1,2,4-oxadiazol-3-yl)benzyl)azetidine-3-carboxylic acid] gave an IC50 on S1P1 [1] of 0.091 nM. At S1P1 [2] (Method A, S1P1/CHO cell membranes), the response was half-maximal at 0.68 nM (EC50). At S1P1 [2] (ratio of GTPγS S1P3 EC50 to GTPγS S1P1 EC50, Method A), the “GTPγS S1P3/S1P1 (Method A)” value is listed as 1,400.

One may read the IC50 as the concentration that inhibits the measured activity by half. High values mean lower potency, low ones higher potency. The term EC50 denotes the concentration giving half of the maximal effect. A low value points to a more potent agent.
